Among the test systems are DLD-1 colon; DMS 273 small cell lung; SK-OV-3 ovarian; M19-MEL melanoma; NCI-H460 lung; SNB-75 CNS; KM20L2 colon; SNB-78 CNS; PC-3 prostate; T-47D breast.
Holding throughout (test): DTP human tumour cell line panel, 48 h

“And” between values parts separate entries of the source, which are not always exact repeats. Equal entries are not always repeated.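 Exposure lasted 48 hours, with cells grown in 96-well plates and compounds tested at five concentrations. The concentration for 50% growth inhibition is given as GI50. Definition used: TGI = concentration required for complete inhibition of growth.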 A value given as a limit tells only on which side of the number the result lay.

The TGI is the concentration at which net growth stops. High values mean lower sensitivity of the cells, low ones greater sensitivity of the cells. For the compound `CC1=NN(C(=O)CC(=O)Nc2cccc(Cl)c2)C(=O)C1N=Nc1ccc(S(N)(=O)=O)cc1` (centres undefined), the total growth inhibition concentration (TGI) in the test on DLD-1 colon, in the test with DMS 273 small cell lung, in the test on SK-OV-3 ovarian, in the test with M19-MEL melanoma, in the test with NCI-H460 lung and in the test on SNB-75 CNS was above 100 µM in each case. Besides, the TGI in the test on KM20L2 colon and in the test on SNB-78 CNS was above 100 µM throughout.
Consider `N#Cc1c2c(c(N=[N+]=[N-])n3c1nc1ccccc13)CCCC2`, for which the total growth inhibition concentration (TGI) in the test on DLD-1 colon worked out at 2.94 µM; with DMS 273 small cell lung it was 6.52 µM; with SK-OV-3 ovarian, 3.64 µM; in the test with M19-MEL melanoma, 6.1 µM; in the test with NCI-H460 lung it was 3.82 µM; in the test on SNB-75 CNS, 4.04 µM. The total growth inhibition concentration (TGI) with KM20L2 colon came to 4.6 µM; in the test with SNB-78 CNS, 11.5 µM.
With `O=c1c2ccccc2nc(-c2ccccc2)n1NCC1(O)OCC(O)C(O)C1O` (centres undefined), the total growth inhibition concentration (TGI) with DLD-1 colon, in the test on DMS 273 small cell lung, in the test with SK-OV-3 ovarian, in the test with M19-MEL melanoma, in the test on NCI-H460 lung and in the test with SNB-75 CNS was above 100 µM each time. For the same compound, the TGI in the test on KM20L2 colon and in the test on SNB-78 CNS was above 100 µM throughout.
Turning to `Brc1ccc2c(c1)C1(c3cc(Br)ccc3-2)c2cc(Br)ccc2-c2ccc(Br)cc21`, the TGI in the test with DLD-1 colon, in the test with DMS 273 small cell lung, with SK-OV-3 ovarian, with M19-MEL melanoma, in the test on NCI-H460 lung and in the test on KM20L2 colon was above 100 µM throughout. Besides, in the test on SNB-78 CNS, the total growth inhibition concentration (TGI) is above 100 µM.
Usually GI50 stands for the concentration at which growth is held to half of that of the control. Turning to `O=C1c2c(O)cccc2C(C(=O)CCCCC(=O)C2c3cccc(O)c3C(=O)c3c(O)cccc32)c2cccc(O)c21`, the GI50 in the test with DLD-1 colon was 1.68 µM; with SK-OV-3 ovarian, 0.921 µM; in the test with SNB-75 CNS it was 1.4 µM; in the test on KM20L2 colon, 1.58 µM; in the test with SNB-78 CNS, 1.97 µM. Further, the total growth inhibition concentration (TGI) in the test on DLD-1 colon was 4.52 µM and 9.27 µM; with DMS 273 small cell lung, 4.51 µM; in the test with PC-3 prostate it was 0.458 µM; in the test with SK-OV-3 ovarian, 1.14 µM and 1.75 µM; in the test with NCI-H460 lung it was 1.35 µM and 1.65 µM; in the test with SNB-75 CNS, 3.44 µM and 3.32 µM. In addition, the concentration for total growth inhibition (TGI) in the test with KM20L2 colon is 4.39 µM and 5.46 µM; with T-47D breast, 0.919 µM; in the test with SNB-78 CNS, 1.23 µM and 5.93 µM.
In the case of `Cc1cc(N(CCC#N)S(=O)(=O)c2ccccc2)ccc1C=O`, the total growth inhibition concentration (TGI) with DLD-1 colon, with DMS 273 small cell lung, in the test on SK-OV-3 ovarian, with NCI-H460 lung, in the test with SNB-75 CNS and in the test with KM20L2 colon was above 100 µM throughout. In addition, in the test on SNB-78 CNS, the TGI is above 100 µM.
As to `O=C(CCCCCCCCCCc1ccccc1)c1c(O)cccc1O`, the total growth inhibition concentration (TGI) was 39.7 µM in the test on DLD-1 colon; 34 µM with DMS 273 small cell lung; above 100 µM in the test with SK-OV-3 ovarian; 42.7 µM in the test with M19-MEL melanoma; 39.6 µM with NCI-H460 lung; 63.8 µM with SNB-75 CNS. Moreover, the total growth inhibition concentration (TGI) in the test with KM20L2 colon and with SNB-78 CNS was above 100 µM in each case.
Take `CC(C)c1ccc(/C=C(\NC(=O)c2ccccc2)c2nc3ccccc3[nH]2)cc1`: the TGI with DLD-1 colon, with DMS 273 small cell lung, in the test with SK-OV-3 ovarian, in the test with M19-MEL melanoma, in the test with NCI-H460 lung and in the test with SNB-75 CNS was above 100 µM in each case. Also, the concentration for total growth inhibition (TGI) in the test on KM20L2 colon and with SNB-78 CNS was above 100 µM throughout.
Regarding `CC(=O)NC1C(OCc2ccccc2)OC(COC(=O)CCCCCCCCCCNC(=O)c2cccc3c(=O)c4ccccc4[nH]c23)C(O)C1OC(C)C(=O)NC(C)C(=O)NC(CCC(N)=O)C(N)=O` (centres undefined), the TGI in the test on DLD-1 colon, in the test with DMS 273 small cell lung, in the test on SK-OV-3 ovarian, with M19-MEL melanoma, with NCI-H460 lung and in the test on SNB-75 CNS was above 100 µM each time. Moreover, the total growth inhibition concentration (TGI) in the test with KM20L2 colon and in the test on SNB-78 CNS was above 100 µM throughout.
As to `CC(C)OP(=O)(OC(C)C)C(N(C)C)P(=O)(OC(C)C)OC(C)C.[Cl][Sn]([Cl])([Cl])[c]1ccccc1`, the GI50 was 2.89 µM in the test on DLD-1 colon; 2.67 µM in the test with DMS 273 small cell lung; 3.67 µM in the test on SK-OV-3 ovarian; 2.61 µM with M19-MEL melanoma; 2.15 µM in the test on NCI-H460 lung; 4.01 µM in the test with SNB-75 CNS. For the same compound, the GI50 in the test on KM20L2 colon was 2.32 µM; in the test with SNB-78 CNS it was 8.01 µM. The total growth inhibition concentration (TGI) in the test on DLD-1 colon was above 100 µM; in the test with DMS 273 small cell lung it was 10.6 µM; with SK-OV-3 ovarian, 17.3 µM; in the test on M19-MEL melanoma, 6.79 µM; in the test with NCI-H460 lung, 29.6 µM; in the test with SNB-75 CNS it was 39.5 µM. In addition, the concentration for total growth inhibition (TGI) with KM20L2 colon is 15.8 µM; with SNB-78 CNS, above 100 µM.
Consider `CC1CCC(O)C(C(O)CC2CC(=O)N(C)C(=O)C2)C1` (centres undefined), for which the TGI in the test with DLD-1 colon, in the test with DMS 273 small cell lung, in the test on SK-OV-3 ovarian, in the test with M19-MEL melanoma, in the test on NCI-H460 lung and in the test with SNB-75 CNS was above 100 µM in each case. The total growth inhibition concentration (TGI) with KM20L2 colon and in the test on SNB-78 CNS was above 100 µM throughout.
Consider `Cc1nnc2n1N=C(CC(=O)c1ccc(O)cc1O)CN2N`, for which the concentration for total growth inhibition (TGI) in the test with DLD-1 colon, in the test on DMS 273 small cell lung, in the test on SK-OV-3 ovarian, with M19-MEL melanoma, with NCI-H460 lung and with KM20L2 colon was above 100 µM throughout. The TGI in the test on SNB-78 CNS is above 100 µM.
Take `O=C1OCC(C(=O)c2cccc(O)c2)C1=O` (centres undefined): the TGI in the test with DLD-1 colon, in the test on DMS 273 small cell lung, in the test on SK-OV-3 ovarian, in the test with M19-MEL melanoma, in the test with NCI-H460 lung and with SNB-75 CNS was above 100 µM each time. Besides, the total growth inhibition concentration (TGI) in the test with KM20L2 colon and in the test on SNB-78 CNS was above 100 µM in each case.
With `O=C(O)c1cc(Cl)cc(NC(=O)C(Cl)Cl)c1Cl`, the TGI in the test on DLD-1 colon, with DMS 273 small cell lung, with SK-OV-3 ovarian, with M19-MEL melanoma, with NCI-H460 lung and in the test with SNB-75 CNS was above 100 µM throughout. The total growth inhibition concentration (TGI) in the test on KM20L2 colon and in the test on SNB-78 CNS was above 100 µM each time.
Take `COc1ccc(S(=O)(=O)N/N=C/C(=O)O)cc1`: the TGI in the test with DLD-1 colon was above 1250 µM; in the test with DMS 273 small cell lung it was above 1200 µM; in the test on PC-3 prostate, above 1250 µM; in the test with SK-OV-3 ovarian it was above 1250 µM; in the test on M19-MEL melanoma it was above 1250 µM; in the test with NCI-H460 lung it was above 1230 µM. In addition, the TGI with SNB-75 CNS, with KM20L2 colon, in the test on T-47D breast and in the test with SNB-78 CNS was above 1250 µM in each case.
In the case of `c1ccc(SCCCC(Sc2ccccc2)Sc2ccccc2)cc1`, the TGI in the test on DLD-1 colon, in the test with DMS 273 small cell lung, with SK-OV-3 ovarian, in the test with M19-MEL melanoma, in the test on NCI-H460 lung and in the test with SNB-75 CNS was above 100 µM throughout. For the same compound, the TGI with KM20L2 colon and with SNB-78 CNS was above 100 µM each time.
For the compound `CC(C)OP(=O)(CP(=O)(OC(C)C)OC(C)C)OC(C)C.[CH3][Sn]([Br])([Br])[Br]`, the GI50 with DLD-1 colon, in the test with DMS 273 small cell lung, in the test on SK-OV-3 ovarian, in the test with M19-MEL melanoma, in the test on NCI-H460 lung and with SNB-75 CNS was above 100 µM each time. Further, the GI50 in the test with KM20L2 colon and with SNB-78 CNS was above 100 µM each time. The TGI in the test with DLD-1 colon, with DMS 273 small cell lung, in the test on SK-OV-3 ovarian, with M19-MEL melanoma, in the test on NCI-H460 lung and in the test with SNB-75 CNS was above 100 µM throughout. Further, the total growth inhibition concentration (TGI) in the test on KM20L2 colon and with SNB-78 CNS was above 100 µM each time.
In the case of `CC1OC(=O)N(CCCC=C2SCCCS2)C1=O` (centres undefined), the concentration for total growth inhibition (TGI) in the test on DMS 273 small cell lung, with SK-OV-3 ovarian, in the test on M19-MEL melanoma, with NCI-H460 lung, with SNB-75 CNS and in the test on KM20L2 colon was above 100 µM throughout. Also, the concentration for total growth inhibition (TGI) with SNB-78 CNS is above 100 µM.
For `CN1CC2(CCCCC2)C(O)C12C=CCCC2` (centres undefined), the TGI in the test with DLD-1 colon, in the test with DMS 273 small cell lung, in the test on SK-OV-3 ovarian, with M19-MEL melanoma, in the test on SNB-75 CNS and in the test with KM20L2 colon was above 100 µM in each case. This compound also returned a TGI with SNB-78 CNS above 100 µM.
On to `CCOC(=O)CCC1(C(=O)OC)CCCC1=O` (centres undefined), for which the total growth inhibition concentration (TGI) in the test on DLD-1 colon, with DMS 273 small cell lung, in the test with SK-OV-3 ovarian, with M19-MEL melanoma, with NCI-H460 lung and with SNB-75 CNS was above 100 µM in each case. Further, the TGI with KM20L2 colon and with SNB-78 CNS was above 100 µM each time.
`CC1=C(C#N)C(N)=C2C(C)=C(C#N)C(N)=C12`: the TGI with DLD-1 colon, in the test on DMS 273 small cell lung, with SK-OV-3 ovarian, in the test with M19-MEL melanoma, with NCI-H460 lung and with SNB-75 CNS was above 100 µM each time. The total growth inhibition concentration (TGI) in the test on KM20L2 colon and with SNB-78 CNS was above 100 µM in each case.
As for `CCC1OCCN1C(C)C` (centres undefined), the concentration for total growth inhibition (TGI) with DLD-1 colon, in the test with DMS 273 small cell lung, in the test with SK-OV-3 ovarian, in the test on M19-MEL melanoma, in the test with NCI-H460 lung and with KM20L2 colon was above 100 µM throughout. The compound also registered a total growth inhibition concentration (TGI) in the test on SNB-78 CNS above 100 µM.

For the origin of these results see PubChem BioAssay (NCI).
